Measurements reported in publication PMC10906223 (JCI Insight, 2024).
Values joined by “and” are separate entries in the source; they are usually repeats but may differ in a detail not shown here. Equal entries are not always repeated.

How the values were obtained:
[1] = system: STZ-induced diabetic mice; assay: Blood glucose in STZ-induced diabetic mice, once-daily oral WCDD301; format: in vivo, mouse; set-up: Blood glucose: unit: mg/dL; conditions: for Blood glucose: WCDD301 10 mg/kg oral once daily, 10 mg/kg
Protocol: Six cohorts of C57BL/6 mice (n = 10 each, equal numbers of females and males; the Jackson Laboratory) were fasted for 5 hours and injected intraperitoneally with 40 mg/kg STZ solution (MilliporeSigma, catalog 572201) for 5 consecutive days. STZ solution (40 mg/mL) was prepared within 5 minutes before injection using freshly prepared citrate buffer (0.1 M, pH 4.5). Nine days after the last injection, blood glucose levels were measured for 2 consecutive days, and those animals with constant values of 300 ± 20 mg/dL were considered as having early severe hyperglycemia.
We prepared sustained time-release pearls for oral administration in the mouse models. To this end, we combined FDA-approved excipients of Eastman BioSustane SAIB NF (product code: 41271-00, sample distribution from Eastman Company, Kingsport, Tennessee, USA; provided by Phillip Cook) and Agar (Lamda Biotech, catalog C110) at the ratio of 1:1.45 (w/w). We also prepared another type of sustained time-release pearl by mixing SAIB, Agar, and L (-) malic acid (MilliporeSigma, catalog 202-601-5) at the ratio of 1:1.4:0.2 (w/w/w). A homogenous paste mixture was prepared, and pearls were formed with 50–60 mg weight and approximately 2 mm diameter by pinching off the mixture and manually rolling.
We preweighed WCDD301 into microfuge tubes and reconstituted it using deionized water. Using a 10 μL pipette tip, we placed the calculated dose of WCDD301 (at the volume range of 1–1.5 μL) within the center of pearls. WCDD301 was placed into pearls 30–45 minutes before administration. For oral administration of pearls, we designed an applicator using a disposable plastic transfer pipette and syringe plunger lubricated with olive oil. Food intake and body weight in each experimental group (diabetic WCDD301-treated, diabetic placebo-treated, and nondiabetic placebo-treated NOD mice) were monitored daily for 4 weeks. Urine glucose was measured from individually caged NOD mice (nondiabetic placebo treated n = 2, diabetic placebo treated n = 2, and diabetic WCDD301 treated n = 4, 21–23 weeks old) with metabolic cages. Urine glucose was monitored every 24 hours for 10 days by semiquantitative measurements (P-STICKS, Millpledge Veterinary).
We applied the following therapeutic regimens in the fed state for oral dosing of pearls containing WCDD301. The therapeutic regimen for diabetic NOD mice with moderate hyperglycemia (n = 6–9; 6 females/3 males) or nondiabetic ones with blood glucose levels of < 140 mg/dL (females, n = 5) was dose 7.5 mg/kg, dosage once a day, and excipient SAIB-Agar, 50–60 mg. The therapeutic regimen for STZ-induced diabetic mice with early severe hyperglycemia (n = 3, placebo group; n = 4 treatment group, females) was dose 10 mg/kg, dosage once a day, and excipient SAIB-Agar-malic acid, 50–60 mg.

[2] = system: dispersed mouse islet cells; assay: EphA4 shedding into culture medium (EphA4 ELISA); format: cell-based; conditions: Supplemental Figure 4D
Protocol: Pancreata of nondiabetic C57BL/6J mice were digested using collagenase P (Roche Diagnostics, catalog 11213873001), and islets were manually picked up using a stereomicroscope (ZEISS Stemi 305). […] Isolated mouse islets or provided human islets were dispersed as described ([28]). Briefly, 100–120 islets were washed 2 times using modified HBSS, then dispersed in 600 μL Accutase (Innovative Cell Technologies, catalog AT-104) by gently pipetting up and down for 7 minutes at 37°C. […] Following refreshing of KRBH, cells were dispensed in 8 microfuge tubes (2,000 cells/tube) and treated with WCDD301, preclustered Ephrin-A5 Fc, or preclustered Fc in the presence or absence of the competitive inhibitor of EphA4 receptor, rhyncophylline ([60]) (MilliporeSigma, catalog SML2345). In the presence or absence of these effectors, secretion assay was performed sequentially as shown in Supplemental Table 5. […] Preclustering of Ephrin-A5 Fc was done by mixing Ephrin-A5 Fc or Fc alone (BioLegend, catalog 790102) with anti-Fc antibody (Invitrogen, catalog A16086) (1:10 molar ratio) 20 minutes before treatment ([62]). […] Shedding of cleaved EphA4 was measured from the cell culture medium. Experiments were performed by dispersion of 200 islets, and EphA4 levels in media were measured by EphA4 ELISA (ABclonal, catalog RK06572).

[3] = system: isolated islets of donors with T1D; assay: Insulin secretion from isolated islets of donors with T1D; format: cell-based, human; conditions: for Secretion of insulin: isolated islets, T1D donors, one value per donor, Figure 2I;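 as to Secretion of insulin: insulin concentration in collected medium by Lumit immunoassay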
Protocol: The Integrated Islet Distribution Program provided us human donor islets with their characteristics (Supplemental Table 6). Islets were centrifuged at 500g for 3 minutes, resuspended in CMRL 1066 medium (Gibco, catalog 1150-037) containing 11 mM glucose, and rested in an incubator overnight.
For the hormone secretion assay, islets or dispersed islet cells were adapted in KRBH buffer containing 11 mM glucose for 1 hour. Then, after 2 washes in HBSS containing 11 mM glucose, islets or cells were treated in the following sequential order in the presence or absence of WCDD301: incubation in KRBH (1 mM glucose, 30 minutes) followed by medium collection, incubation in KRBH (11 mM glucose, 30 minutes) followed by medium collection.

Compound: CC(=O)OCC(N)(COC(C)=O)COC(C)=O [WCDD301, 2-(acetoxymethyl)-2-aminopropane-1,3-diyl diacetate]
- Effect on hyperglycemia ([1]; 4-week dosing): normalized hyperglycemia
- Blood glucose ([1]; Week 1, per mouse, before dosing 277-300, Figure 6F): 205 and 210 and 206 and 240
- Blood glucose ([1]; Week 2, per mouse, Figure 6F): 180 and 170 and 145 and 210
- Blood glucose ([1]; Week 3, per mouse, Figure 6F): 145 and 150 and 135 and 156
- Blood glucose ([1]; Week 4, per mouse, Figure 6F): 125 and 119 and 121 and 130
- Shedding of EphA4 into the cell culture medium [2]: reduced shedding of EphA4 into the cell culture medium
- Effect on insulin secretion ([3]; islets from donors with long-standing T1D): no effect on the minimal residual insulin secretion
- Secretion of insulin ([3]; 1 mM glucose): 0.055 and 0.09
- Secretion of insulin ([3]; 11 mM glucose): 0.07 and 0.06
